Measured values: ChEMBL document CHEMBL3885881, “DrugMatrix”

Organism: Rattus norvegicus
Assay: DrugMatrix - Regimen: Daily Repeat
Format: toxicity, organism-based, Sprague-Dawley
Design: regimen Daily Repeat, gender Male, age 6-8 weeks
Settings: in vivo, po, 1500 mg/kg, route oral GAVAGE, dose level High, vehicle 100 % WATER; for ABSOLUTE BASOPHIL / ABSOLUTE EOSINOPHIL / ABSOLUTE LYMPHOCYTE / ABSOLUTE MONOCYTE / ABSOLUTE SEGMENTED NEUTROPHIL / BASOPHIL / EOSINOPHIL / ERYTHROCYTE COUNT / HEMATOCRIT / HEMOGLOBIN / LEUKOCYTE COUNT / LYMPHOCYTE / MEAN CORPUSCULAR HEMOGLOBIN / MEAN CORPUSCULAR HEMOGLOBIN CONCENTRATION / MEAN CORPUSCULAR VOLUME / MONOCYTE / NEUTROPHIL / NUCLEATED RED BLOOD CELLS / PLATELET COUNT: tissue Blood; for ALANINE AMINOTRANSFERASE / ALBUMIN / ALKALINE PHOSPHATASE / ASPARTATE AMINOTRANSFERASE / BLOOD UREA NITROGEN / CARBON DIOXIDE / CHLORIDE / CHOLESTEROL / CREATINE PHOSPHOKINASE / CREATININE / GLUCOSE / LACTATE DEHYDROGENASE / LIPASE / PHOSPHORUS / POTASSIUM / SODIUM / TOTAL BILIRUBIN / TOTAL PROTEIN / URIC ACID: tissue Plasma

For `CNCCc1ccccn1` [BETAHISTINE], the “ABSOLUTE BASOPHIL” value (72 h, time 3 day) was 0 CELLS/uL, the “ABSOLUTE EOSINOPHIL” value (72 h, time 3 day) was 56.67 CELLS/uL and the “ABSOLUTE LYMPHOCYTE” value (72 h, time 3 day) was 8977.33 CELLS/uL. For the same compound, the “ABSOLUTE MONOCYTE” value (72 h, time 3 day) was 168 CELLS/uL, the “ABSOLUTE SEGMENTED NEUTROPHIL” value (72 h, time 3 day) was 798 CELLS/uL and the BASOPHIL (72 h, time 3 day) was 0%. For the same compound, the EOSINOPHIL (72 h, time 3 day) was 0.67%, the “ERYTHROCYTE COUNT” value (72 h, time 3 day) was 5.37 x10E6/uL and the HEMATOCRIT (72 h, time 3 day) was 33.67%. For the same compound, the HEMOGLOBIN (72 h, time 3 day) was 12.53 G/DL, the “LEUKOCYTE COUNT” value (72 h, time 3 day) was 10 x10E3/uL and the LYMPHOCYTE (72 h, time 3 day) was 89.67%. For the same compound, the “MEAN CORPUSCULAR HEMOGLOBIN” value (72 h, time 3 day) was 23.37 pg, the “MEAN CORPUSCULAR HEMOGLOBIN CONCENTRATION” value (72 h, time 3 day) was 37.27 G/DL and the “MEAN CORPUSCULAR VOLUME” value (72 h, time 3 day) was 62.73 fL. The MONOCYTE (72 h, time 3 day) was 1.67%, the NEUTROPHIL (72 h, time 3 day) was 8% and the “NUCLEATED RED BLOOD CELLS” value (72 h, time 3 day) was 0 /100WBC. The “PLATELET COUNT” value (72 h, time 3 day) was 1427.33 x10E3/uL, the “ALANINE AMINOTRANSFERASE” value (72 h, time 3 day) was 50 u/L and the ALBUMIN (72 h, time 3 day) was 4.53 G/DL. The “ALKALINE PHOSPHATASE” value (72 h, time 3 day) was 288.67 u/L, the “ASPARTATE AMINOTRANSFERASE” value (72 h, time 3 day) was 71.67 u/L and the “BLOOD UREA NITROGEN” value (72 h, time 3 day) was 14.33 mg/dL. The “CARBON DIOXIDE” value (72 h, time 3 day) was 28.33 mmol/L, the CHLORIDE (72 h, time 3 day) was 105.67 MEQ/L and the CHOLESTEROL (72 h, time 3 day) was 76.33 mg/dL. The “CREATINE PHOSPHOKINASE” value (72 h, time 3 day) was 148.67 u/L, the CREATININE (72 h, time 3 day) was 0.19 mg/dL and the GLUCOSE (72 h, time 3 day) was 141 mg/dL. The “LACTATE DEHYDROGENASE” value (72 h, time 3 day) was 118 u/L, the LIPASE (72 h, time 3 day) was 15.67 u/L and the PHOSPHORUS (72 h, time 3 day) was 12.33 mg/dL. For the same compound, the POTASSIUM (72 h, time 3 day) was 6.21 MEQ/L, the SODIUM (72 h, time 3 day) was 150.8 MEQ/L and the “TOTAL BILIRUBIN” value (72 h, time 3 day) was 0.2 mg/dL. The “TOTAL PROTEIN” value (72 h, time 3 day) was 6.07 G/DL, the “URIC ACID” value (72 h, time 3 day) was 0.87 mg/dL and the “ABSOLUTE BASOPHIL” value (120 h, time 5 day) was 0 CELLS/uL. For the same compound, the “ABSOLUTE EOSINOPHIL” value (120 h, time 5 day) was 0 CELLS/uL, the “ABSOLUTE LYMPHOCYTE” value (120 h, time 5 day) was 10659 CELLS/uL and the “ABSOLUTE MONOCYTE” value (120 h, time 5 day) was 37.33 CELLS/uL. The “ABSOLUTE SEGMENTED NEUTROPHIL” value (120 h, time 5 day) was 870.33 CELLS/uL, the BASOPHIL (120 h, time 5 day) was 0% and the EOSINOPHIL (120 h, time 5 day) was 0%. The “ERYTHROCYTE COUNT” value (120 h, time 5 day) was 5.91 x10E6/uL, the HEMATOCRIT (120 h, time 5 day) was 36.13% and the HEMOGLOBIN (120 h, time 5 day) was 13.33 G/DL. For the same compound, the “LEUKOCYTE COUNT” value (120 h, time 5 day) was 11.57 x10E3/uL, the LYMPHOCYTE (120 h, time 5 day) was 92% and the “MEAN CORPUSCULAR HEMOGLOBIN” value (120 h, time 5 day) was 22.63 pg. For the same compound, the “MEAN CORPUSCULAR HEMOGLOBIN CONCENTRATION” value (120 h, time 5 day) was 36.93 G/DL, the “MEAN CORPUSCULAR VOLUME” value (120 h, time 5 day) was 61.27 fL and the MONOCYTE (120 h, time 5 day) was 0.33%. The NEUTROPHIL (120 h, time 5 day) was 7.67%, the “NUCLEATED RED BLOOD CELLS” value (120 h, time 5 day) was 0 /100WBC and the “PLATELET COUNT” value (120 h, time 5 day) was 1404.67 x10E3/uL. The “ALANINE AMINOTRANSFERASE” value (120 h, time 5 day) was 60.67 u/L, the ALBUMIN (120 h, time 5 day) was 4.2 G/DL and the “ALKALINE PHOSPHATASE” value (120 h, time 5 day) was 406.33 u/L. The “ASPARTATE AMINOTRANSFERASE” value (120 h, time 5 day) was 75.67 u/L, the “BLOOD UREA NITROGEN” value (120 h, time 5 day) was 14 mg/dL and the “CARBON DIOXIDE” value (120 h, time 5 day) was 25.33 mmol/L. For the same compound, the CHLORIDE (120 h, time 5 day) was 105.33 MEQ/L, the CHOLESTEROL (120 h, time 5 day) was 59 mg/dL and the “CREATINE PHOSPHOKINASE” value (120 h, time 5 day) was 153 u/L. For the same compound, the CREATININE (120 h, time 5 day) was 0.19 mg/dL, the GLUCOSE (120 h, time 5 day) was 171 mg/dL and the “LACTATE DEHYDROGENASE” value (120 h, time 5 day) was 64 u/L. For the same compound, the LIPASE (120 h, time 5 day) was 8 u/L, the PHOSPHORUS (120 h, time 5 day) was 13.97 mg/dL and the POTASSIUM (120 h, time 5 day) was 5.7 MEQ/L. For the same compound, the SODIUM (120 h, time 5 day) was 146.6 MEQ/L, the “TOTAL BILIRUBIN” value (120 h, time 5 day) was 0.27 mg/dL and the “TOTAL PROTEIN” value (120 h, time 5 day) was 5.9 G/DL. The “URIC ACID” value (120 h, time 5 day) was 2.07 mg/dL.
